Several values for one entry are separate records, joined by “and”; a condition that tells them apart may be missing. Equal entries are not always repeated. Where two headings read alike, the source gives them in different places. Where a SMILES comes first, the peptide text is derived from it.
Experiments:
KSHV lytic replication = settings: cited from earlier work
Excerpt: In KSHV-associated cancers, such as Kaposi’s sarcoma (KS), tumor cells predominantly display latent viral infection, while spontaneous reactivation takes place in only 1–3% of infected cells. […] Despite the low percentage of lytic cells, lytic replication plays a critical role in KS pathogenesis. Firstly, the production and release of infectious KSHV particles sustain the latently infected cell population by compensating for episomal loss duri ... || KSHV is the etiological agent of Kaposi’s sarcoma (KS) and primary effusion lymphoma (PEL), and contributes to other malignancies such as multicentric Castleman’s disease (MCD). […] Therefore, KSHV antiviral treatments, including those aimed at inhibiting lytic replication, are actively being developed. […] MMV1645152, identified from the Medicines for Malaria Venture (MMV) Pandemi ...

[1] = system: lung inflammation in MHV68-infected C57BL/6 mice; type: in vivo; settings: Fig 5F, 5 mg/kg, 5 days post-infection, vs vehicle
Experimental: Fig 5 P8-DRI restricts MHV68 Infection in vivo. (A-B) MLF cells were infected with MHV68 (MOI, 0.01) and treated with the indicated peptides (100 µM). Viral titer was determined by plaque assays 48 h post-infection (A). Viral gene expression was assessed by RT-qPCR (B). Data are mean ± s.d. of N = 3 independent biological replicates. […] Data are mean ± s.d. of N = 3 independent biological replicates. (D-E) C57BL/6 mice were intranasally inoculated with MHV68 (4000 PFU) and administrated with p8-DRI (5 mg/kg of body weight) or vehicle control (n = 6 per group). Viral loads in lung tissues were quantified at 5 days post-infection (D). Viral gene expression in lung tissues was measured by RT-qPCR at 5 days post-infection (E). Data are mean ± s.d. of N = 6 independent biological replicates. […] Viral titers in lung tissues were determined at 5 days post-infection (G). Viral gene expression in lung tissues was assessed by RT-qPCR (H). […] (I) H&E staining of lung tissue sections from MHV68-infected Otud4^^fl/fl Cre-ERT2^-/- and Otud4^^fl/fl Cre-ERT2^+/- mice treated with p8-DRI or vehicle control, analyzed at 5 days post-infection. […]
Mouse lung tissue samples were fixed in 10% formalin solution (Sigma) overnight. […] The tissue sections were stained using standard H&E staining protocols and analyzed microscopically.

MHV68 in C57BL/6 mice [2] = type: in vivo; settings: Fig 5E, 5 mg/kg, 5 days post-infection
Experimental: Fig 5 P8-DRI restricts MHV68 Infection in vivo. (A-B) MLF cells were infected with MHV68 (MOI, 0.01) and treated with the indicated peptides (100 µM). Viral titer was determined by plaque assays 48 h post-infection (A). Viral gene expression was assessed by RT-qPCR (B). Data are mean ± s.d. of N = 3 independent biological replicates. […] Data are mean ± s.d. of N = 3 independent biological replicates. (D-E) C57BL/6 mice were intranasally inoculated with MHV68 (4000 PFU) and administrated with p8-DRI (5 mg/kg of body weight) or vehicle control (n = 6 per group). Viral loads in lung tissues were quantified at 5 days post-infection (D). Viral gene expression in lung tissues was measured by RT-qPCR at 5 days post-infection (E). Data are mean ± s.d. of N = 6 independent biological replicates. (F) H&E staining of lung tissue sections from MHV68-infected mice treated with p8-DRI or vehicle 5 days post-infection. Scale bars, 500 µm (left) and 100 µm (right). […] Viral titers in lung tissues were determined at 5 days post-infection (G). Viral gene expression in lung tissues was assessed by RT-qPCR (H). […] (I) H&E staining of lung tissue sections from MHV68-infected Otud4^^fl/fl Cre-ERT2^-/- and Otud4^^fl/fl Cre-ERT2^+/- mice treated with p8-DRI or vehicle control, analyzed at 5 days post-infection. […]

MHV68 in C57BL/6 mice [3] = test: Viral loads/titers in lungs of MHV68-infected C57BL/6 mice; type: in vivo; settings: 5 days post-infection
[4] = system: MHV68 in Otud4fl/fl Cre-ERT2 mice; type: in vivo; settings: 5 mg/kg
[5] = system: KSHV lytic reactivation in SLK.iBAC-GFP cells; type: cell-based; settings: for IC50: Dox + sodium butyrate, mean ± s.d. of N = 3
Experimental: (A) Graphical illustration showing the rationale underlying our peptide design. (B) Surface Plasmon Resonance (SPR) analysis assessing the interaction of the USP7-TRAF domain with the designed peptides p2 and p8. (C) SLK.iBAC-GFP cells were induced with doxycycline (Dox, 1 μg/mL) and sodium butyrate (0.5 mM) in the presence of the Tat fusion peptides (100 μM). All the peptides were fused to an N-terminal Tat47-57 peptide ([…]) via a flexible GG linker. The supernatants containing infectious virions were collected 48 h post-induction and used to infect HEK293T cells. KSHV infectious units were calculated based on the percentage of GFP-positive cells determined by flow cytometry. Data are mean ± s.d. of N = 3 independent biological replicates. (D) SLK.iBAC-GFP cells were induced with doxycycline (Dox, 1 μg/mL) and sodium butyrate (0.5 mM) in the presence of increasing amount of p8 (0, 10, 50, 100 μM). KSHV infectious units were determined 48 h post-induction. Data are mean ± s.d. of N = 3 independent biological replicates. […] Data are mean ± s.d. of N = 3 independent biological replicates. […] Cell viability was assessed by measuring ATP levels 48 h post-induction. Data are mean ± s.d. of N = 3 independent biological replicates.
Peptides p1 to p12 (S1A Fig) were synthesized by Sangon Biotech (Shanghai, China) with 95% purity. The Tat-fused peptides in Fig 1C consisted of the corresponding peptides conjugated to the Tat47-57 peptide ([…]) and two glycine linker residues (QYAOBIO, Suzhou, China). The peptides p8-DRI (nssqsasqnvpprrrqrrkkrGy) and p2-DRI (iesndedavepprrrqrrkkrGy) were synthesized using D-amino acids in a retro-reversed sequence with 95% purity (QYAOBIO, Suzhou, China). The peptide p8-m ([…]) was synthesized with 95% purity (QYAOBIO, Suzhou, China). All the peptides were acetylated at the N-terminus and amidated at the C-terminus to mimic the native peptide structure. The peptides were dissolved in PBS to prepare 1 mM stock solutions for in vitro experiments and 5 mg/ml stock solutions for in vivo experiments.
SLK.iBAC-GFP cells were treated with Dox (1 μg/ml) and sodium butyrate (0.5 mM) to induce lytic reactivation in the presence of indicated peptides (100 μM). The supernatants were collected at the specified time points and used to infect HEK293T cells at appropriate dilutions. The infected cells were collected, fixed, and analyzed by flow cytometry 24 h post-infection. FlowJo 10.0 software was used to analyze the data, and KSHV infectious units were quantified based on the percentage of GFP-positive cells.

[6] = system: lung pathology in MHV68-infected Otud4fl/fl Cre-ERT2 mice; type: in vivo; settings: for Histological score of lungs: Fig. 5I
USP7-TRAF domain = biological target: T1, USP7-TRAF domain (Homo sapiens, UniProt Q93009); test: Surface plasmon resonance (SPR) analysis of peptide binding to USP7-TRAF
T1 construct: The TRAF domain of human and murine USP7 (1-208 aa) was subcloned into pGEX-6p-1; GST (N); made in house; host or cells: E. coli BL21 (DE3)

[7] = system: interaction between OTUD4 and USP7-TRAF; test: GST pull-down competition assay, human USP7-TRAF and FLAG-OTUD4; type: binding; settings: 100 μM, 4 h
[8] = system: Kaposi's sarcoma (KS) progression; settings: cited from earlier work

T1 sequence (Q93009 1-208): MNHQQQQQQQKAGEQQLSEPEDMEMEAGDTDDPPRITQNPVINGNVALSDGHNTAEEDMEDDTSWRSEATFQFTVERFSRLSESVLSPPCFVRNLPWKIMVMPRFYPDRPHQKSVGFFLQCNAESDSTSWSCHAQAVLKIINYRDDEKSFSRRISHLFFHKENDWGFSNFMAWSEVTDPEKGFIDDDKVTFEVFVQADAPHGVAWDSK

Cc1c(O)cccc1C(=O)N[C@@H](CSc1ccccc1)[C@H](O)CN1C[C@H]2CCCC[C@H]2C[C@H]1C(=O)NC(C)(C)C [Nelfinavir]
Inhibition of KSHV virion production (in words) (KSHV lytic replication): prevents mature virion production

CC(=O)N[C@H](CC(N)=O)C(=O)N[C@H](CO)C(=O)N[C@H](CO)C(=O)N[C@H](CCC(N)=O)C(=O)N[C@H](CO)C(=O)N[C@H](C)C(=O)N[C@H](CO)C(=O)N[C@H](CCC(N)=O)C(=O)N[C@H](CC(N)=O)C(=O)N[C@@H](C(=O)N1CCC[C@@H]1C(=O)N1CCC[C@@H]1C(=O)N[C@H](CCCNC(=N)N)C(=O)N[C@H](CCCNC(=N)N)C(=O)N[C@H](CCCNC(=N)N)C(=O)N[C@H](CCC(N)=O)C(=O)N[C@H](CCCNC(=N)N)C(=O)N[C@H](CCCNC(=N)N)C(=O)N[C@H](CCCCN)C(=O)N[C@H](CCCCN)C(=O)N[C@H](CCCNC(=N)N)C(=O)NCC(=O)N[C@H](Cc1ccc(O)cc1)C(N)=O)C(C)C [p8-DRI] (HELM PEPTIDE1{[ac].[dN].[dS].[dS].[dQ].[dS].[dA].[dS].[dQ].[dN].[dV].[dP].[dP].[dR].[dR].[dR].[dQ].[dR].[dR].[dK].[dK].[dR].G.[dY].[am]}$$$$V2.0)
Lung inflammation and immune cell infiltration (in words) [1]: less inflammation and immune cell infiltration in the lungs
MHV68 viral gene transcription (ORF50, ORF9, ORF25) in lungs (in words) (MHV68 in C57BL/6 mice [2]): significantly reduced
Viral titers in lung tissues (in words) (MHV68 in C57BL/6 mice [3]; Fig 5D, 5 mg/kg, vs vehicle): lower viral titers in lung tissues
Viral loads in lung tissues (MHV68 in C57BL/6 mice [3]; Fig. 5D, 5 mg/kg p8-DRI, MHV68 4000 PFU intranasal, single animals, one line per mouse (n = 6)): 12.8424 and 18.8481 and 2.1041 and 7.7972 and 13.617 and 0.6389
Antiviral effect in OTUD4-deficient mice (in words) ([4]; Figs 5G-5I, Otud4fl/fl Cre-ERT2+/- + tamoxifen): abolished in OTUD4-deficient mice
Viral titers in lungs of OTUD4-replete mice (in words) ([4]; Otud4fl/fl Cre-ERT2-/-, vs vehicle): lower viral titers in lung tissues
IC50 ([5]; SLK.iBAC-GFP cells): 9.23 ± 1.29 µM
Histological score of lungs ([6]; OTUD4 KO mice, replicate 1): 1
Histological score of lungs ([6]; OTUD4 KO mice, replicate 2): 1
Histological score of lungs ([6]; OTUD4 KO mice, replicate 3): 1
Histological score of lungs ([6]; OTUD4 KO mice, replicate 4): 2
Histological score of lungs ([6]; OTUD4 KO mice, replicate 5): 3
Histological score of lungs ([6]; OTUD4 WT mice, replicate 1): 1
Histological score of lungs ([6]; OTUD4 WT mice, replicate 2): 1
Histological score of lungs ([6]; OTUD4 WT mice, replicate 3): 1
Histological score of lungs ([6]; OTUD4 WT mice, replicate 4): 2
Histological score of lungs ([6]; OTUD4 WT mice, replicate 5): 3
Viral pathology in OTUD4-replete mice (in words) ([6]; Otud4fl/fl Cre-ERT2-/-, 5 mg/kg, vs vehicle): reduced viral pathology
Binding affinity for USP7-TRAF relative to p8 (in words) (USP7-TRAF domain; N = 3 (S5H Fig)): remained comparable to that of p8

CC[C@@H](C)[C@@H](NC(C)=O)C(=O)N[C@H](CCC(=O)O)C(=O)N[C@H](CO)C(=O)N[C@H](CC(N)=O)C(=O)N[C@H](CC(=O)O)C(=O)N[C@H](CCC(=O)O)C(=O)N[C@H](CC(=O)O)C(=O)N[C@H](C)C(=O)N[C@@H](C(=O)N[C@H](CCC(=O)O)C(=O)N1CCC[C@@H]1C(=O)N1CCC[C@@H]1C(=O)N[C@H](CCCNC(=N)N)C(=O)N[C@H](CCCNC(=N)N)C(=O)N[C@H](CCCNC(=N)N)C(=O)N[C@H](CCC(N)=O)C(=O)N[C@H](CCCNC(=N)N)C(=O)N[C@H](CCCNC(=N)N)C(=O)N[C@H](CCCCN)C(=O)N[C@H](CCCCN)C(=O)N[C@H](CCCNC(=N)N)C(=O)NCC(=O)N[C@H](Cc1ccc(O)cc1)C(N)=O)C(C)C [p2-DRI] (HELM PEPTIDE1{[ac].[dI].[dE].[dS].[dN].[dD].[dE].[dD].[dA].[dV].[dE].[dP].[dP].[dR].[dR].[dR].[dQ].[dR].[dR].[dK].[dK].[dR].G.[dY].[am]}$$$$V2.0)
IC50 ([5]; SLK.iBAC-GFP cells): 67.4 ± 34.1 µM

Ac-YGRKKRRQRRRGGEVADEDNSEI-NH2 [p2]
Disruption of OTUD4/USP7-TRAF interaction (in words) [7]: failed to disrupt the interaction between USP7-TRAF and OTUD4
IC50, KSHV lytic reactivation (in words) ([5]; SLK.iBAC-GFP cells, Tat-fused peptide): could not be determined due to its low antiviral activity
Inhibition of KSHV lytic reactivation (in words) ([5]; Tat-fused peptides, 100 μM or dose series, 48 h post-induction): no significant inhibition
Binding to the USP7-TRAF domain (in words) (USP7-TRAF domain): specifically bound to the USP7-TRAF domain

CCc1cc(-c2n[nH]c(C)c2-c2ccc3c(c2)OCCO3)c(O)cc1O [CCT018159]
Inhibition of KSHV lytic replication and virion production (in words) (KSHV lytic replication; UAP56 ATPase inhibitor): successfully blocks KSHV lytic replication and infectious virion production

Nc1nc(O)c2ncn(COC(CO)CO)c2n1 [Ganciclovir]
Inhibition of KSHV lytic replication (in words) (KSHV lytic replication; nucleoside analogue): inhibits KSHV lytic replication
Prevention of KS progression (in words) [8]: remarkable efficacy in randomized clinical trials for preventing KS progression

Nc1nc(O)c(Br)c(-c2cccc(Cl)c2)n1 [MMV1645152]
Inhibition of KSHV lytic replication (in words) (KSHV lytic replication): effectively blocking KSHV lytic replication

From paper PMC12047801, “Disrupting the OTUD4-USP7 deubiquitinase complex to suppress herpesvirus replication: a novel antiviral strategy” (PLOS Pathogens, 2025)
